How the values were obtained:
Purkinje Fiber = test: Cardiac electrophysiology in vitro: action potential parameters of dog Purkinje fibers; assay type: cell-based; settings: 3 μM, BCL = 300
Experimental: Bundles of free-running Purkinje fibers with attached myocardium obtained from either ventricle of adult dog heart were pinned without stretching to the bottom of a 10 mL tissue chamber and continuously superfused with oxygenated Tyrode's solution at a flow rate of 5 mL/minute. The composition of the Tyrode's solution was (mM): NaCl, 138; KCl 4; CaCl2, 2; MgCl2, 0.5; NaHCO3, 24; dextrose, 5.5. The solution was aerated with 95% O2 --5% CO2 at 37° C. Bath temperature was maintained at 37°±0.5° C. by circulating the pre-warmed superfusate through a thermostatically controlled water bath immediately prior to entering the tissue chamber. […] The first derivative of the action potential upstroke (Vmax) was obtained using an analog differentiator circuit, coupled to a peak-hold circuit that retained the recorded value of Vmax for 30 to 70-msec. […] Action potential (AP) parameters measured included: diastolic take-off potential (or activation voltage, V(act); AP overshoot (Vos); AP duration measured as the time taken to repolarize to -20 mV (APD-20), -60 mV (APD-60), and -80 mV (APD-80); and maximal upstroke velocity (Vmax). An increase in APD-60 that occurred without a significant change in Vmax was taken, by definition, to indicate Class III antiarrhythmic activity "in vitro".

Dog = test: Ventricular fibrillation threshold in dog; assay type: in vivo, mongrel dog; settings: 5 mg/kg i.v.
Experimental: VENTRICULAR FIBRILLATION THRESHOLD
Mongrel dogs of both sexes weighing 12 to 18 kg were anesthetized with sodium pentobarbital (35 mg/kg i.v. supplemented with 5 mg/kg/h) and artificially ventilated with room air (minute volume: 200 mL/kg).
A right thoracotomy was performed at the fifth intercostal space and the heart suspended in a pericardial cradle. Bipolar electrodes for stimulation were sutured to the free wall of the right atrium and to the right ventricle.
The dog heart was paced by a stimulus for driving a constant current isolation unit.
Ventricular fibrillation threshold (VFT) was determined during atrial pacing at […]. Trains of 4-msec duration square-wave pulses (50 Hz, 200-msec duration) were delivered to the right ventricle via the epicardial bipolar electrode (silver contacts 1 mm in diameter and 5 mm apart embedded in acrylic matrix). Trains of pulses were delivered every 12th paced beat and were timed to terminate with the end of the T wave of the ECG. Current intensity was increased progressively until ventricular fibrillation (VF) occurred. The lowest current intensity producing VF was defined as the ventricular fibrillation threshold (VFT). […] VFT was measured twice before drug administration to establish a stable pre-drug threshold. […]

[1] = dextro enantiomer; Taggart et al. 1985, McComb et al. 1985; cited from earlier work

SMILES: CN(Cc1ccc2ccccc2n1)CC(O)COc1ccc([N+](=O)[O-])cc1.Cl.Cl (stereo not shown) [Example 3, 1-[Methyl(2-quinolinylmethyl)amino]-3-(4-nitrophenoxy)-2-propanol Dihydrochloride]
- APD-60 (Purkinje Fiber): did not pace

SMILES: CN(Cc1ccc2ccccc2n1)CC(O)COc1ccc(NS(C)(=O)=O)cc1 (stereo not shown) [Example 4, N-[4-[2-Hydroxy-3-[methyl(2-quinolinylmethyl)amino]propoxy]phenyl]methanesulfonamide]
- Ventricular fibrillation threshold (current threshold necessary to induce fibrillation) (Dog; n = 6, x + S.E., pre-drug vehicle 8 + 2): 25 + 7 mA
- animals defibrillated spontaneously (Dog; of 6 animals): 2 animals

SMILES: CC(C)NCC(O)c1ccc(NS(C)(=O)=O)cc1 (stereo not shown) [Sotalol, 4-(2-isopropylamino-1-hydroxyethyl)-methanesulfonamide]
- selective Class III antiarrhythmic activity [1]: selective Class III antiarrhythmic activity

Reference: patent US5084463A, “N-quinolinyl alkyl-substituted 1-aryloxy-2-propanolamine and propylamine derivatives possessing class III antiarrhythmic activity” (American Home Products Corporation, priority 1990, dated 1992)
